The source made the active and inactive calls. The rule behind the calls is not given here.
How the values were obtained:
[1] = test system: HEK-293T; experiment: Cytotoxicity against HEK293T cells assessed as reduction in cell viability at 50 uM incubated for 36 hrs by Celltiter-Glo assay; type: toxicity, cell-based; settings: human
[2] = test system: Influenza A virus; experiment: Antiviral activity against Influenza A A/WSN/33 (H1N1) infected in BALB/c mouse assessed as plaque reduction at 10 to 20 mg/kg/day, iv incubated for 4 to 16 days (reference value: 2.7x10^6 PFU/g); type: functional; settings: dose 10-20 mg/kg/day, time 4-16 day
[3] = test system: Influenza A virus; experiment: Antiviral activity against Influenza A A/WSN/33 (H1N1) infected in BALB/c mouse assessed as fold reduction plaque count at 10 to 20 mg/kg/day, iv incubated for 4 to 16 days relative to control; type: functional; settings: dose 10-20 mg/kg/day, time 4-16 day
[4] = target: T1, von Hippel-Lindau disease tumor suppressor/Hemagglutinin (Homo sapiens, UniProt P03452+P40337); experiment: Protac activity at VHL (unknown origin)/influenza A hemagglutinin transfected in HEK293T cells assessed as degradation of hemagglutinin incubated for 10 hrs by Western blot analysis; type: cell-based
[5] = target: T1, von Hippel-Lindau disease tumor suppressor/Hemagglutinin; experiment: Protac activity at VHL (unknown origin)/influenza A hemagglutinin transfected in HEK293T cells assessed as degradation of hemagglutinin incubated for 24 hrs by Western blot analysis; type: cell-based; settings: dose 0.03-33.3 µM, DDE = dose-dependent effect
Target sequence in this assay (P03452 whole entry, looked up): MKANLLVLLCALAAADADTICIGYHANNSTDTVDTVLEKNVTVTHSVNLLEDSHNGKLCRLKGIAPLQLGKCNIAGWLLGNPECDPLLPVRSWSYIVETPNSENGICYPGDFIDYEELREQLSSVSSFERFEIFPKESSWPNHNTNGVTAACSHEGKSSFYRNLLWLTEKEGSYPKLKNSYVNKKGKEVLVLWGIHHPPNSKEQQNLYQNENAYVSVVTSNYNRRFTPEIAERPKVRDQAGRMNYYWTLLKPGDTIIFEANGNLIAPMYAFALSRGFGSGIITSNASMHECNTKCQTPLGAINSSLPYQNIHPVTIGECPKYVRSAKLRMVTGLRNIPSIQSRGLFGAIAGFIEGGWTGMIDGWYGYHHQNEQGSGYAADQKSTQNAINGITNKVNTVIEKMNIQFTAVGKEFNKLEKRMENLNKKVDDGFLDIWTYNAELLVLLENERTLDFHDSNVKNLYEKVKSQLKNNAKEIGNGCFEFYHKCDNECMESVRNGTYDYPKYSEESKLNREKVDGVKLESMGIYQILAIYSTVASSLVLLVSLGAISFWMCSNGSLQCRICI
Target sequence in this assay (P40337 whole entry, looked up): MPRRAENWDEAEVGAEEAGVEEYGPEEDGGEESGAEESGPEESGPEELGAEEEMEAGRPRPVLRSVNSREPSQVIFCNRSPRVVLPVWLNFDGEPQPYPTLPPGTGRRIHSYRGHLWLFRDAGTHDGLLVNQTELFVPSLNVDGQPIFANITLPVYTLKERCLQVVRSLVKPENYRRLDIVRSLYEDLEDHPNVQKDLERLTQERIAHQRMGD

[6] = test system: Influenza A virus; experiment: Antiviral activity against Influenza A A/WSN/33 (H1N1) infected in BALB/c mouse assessed as reduction in virus induced inflammation at 10 mg/kg, iv measured on day 4 by histopathological staining based analysis; type: functional, organism-based; settings: time 4.0 day
[7] = target: von Hippel-Lindau disease tumor suppressor (Homo sapiens, UniProt P40337); experiment: Binding affinity to human recombinant VHL assessed as dissociation constant by SPR assay
[8] = test system: Influenza A virus; experiment: Antiviral activity against Influenza A A/Aichi/2/68 (H3N2) infected in HEK293T cells incubated for 12 hrs; type: functional, organism-based; settings: HEK-293T
[9] = Elimination half life in BALB/c mouse infected with Influenza A A/WSN/33 (H1N1) virus at 50 mg/kg, po measured after 24 hrs by LC-MS analysis; type: ADME, organism-based; settings: in vivo, read-out: LambdaZ (converted)
[10] = test system: Influenza A virus; experiment: Antiviral activity against Influenza A A/California/08/2009 (H1N1) infected in HEK293T cells incubated for 12 hrs; type: functional, organism-based; settings: HEK-293T
[11] = target: T1, von Hippel-Lindau disease tumor suppressor/Hemagglutinin; experiment: Protac activity at VHL (unknown origin)/influenza A hemagglutinin transfected in HEK293T cells assessed as reduction in hemagglutinin level at 10 uM by immunoblotting analysis relative to control; type: cell-based; design: scale not given: the % may be the effect or the level left
Target sequence in this assay (P03452 whole entry, looked up): as the sequence (P03452 whole entry, looked up) above
Target sequence in this assay (P40337 whole entry, looked up): as the sequence (P40337 whole entry, looked up) above

[12] = test system: Influenza B virus; experiment: Antiviral activity against Influenza B B/Florida/4/2006 infected in HEK293T cells incubated for 12 hrs; type: functional, organism-based; settings: B/Florida/4/2006, HEK-293T
[13] = test system: Influenza A virus; experiment: Antiviral activity against influenza A A/WSN/33 (H1N1) infected in HEK293T cells assessed as reduction in hemagglutinin level at virion replication and release stage at 25 uM mesured after 3 to 9 hrs by immunofluorescence based confocal microscopic analysis; type: functional, organism-based; settings: time 3-9 hrs
[14] = target: T1, von Hippel-Lindau disease tumor suppressor/Hemagglutinin; experiment: Protac activity at VHL (unknown origin)/influenza A hemagglutinin transfected in HEK293T cells assessed as degradation of hemagglutinin incubated for 12 hrs by Western blot analysis; type: cell-based; settings: dose 0.39-25 µM, DDE = dose-dependent effect
Target sequence in this assay (P03452 whole entry, looked up): as the sequence (P03452 whole entry, looked up) above
Target sequence in this assay (P40337 whole entry, looked up): as the sequence (P40337 whole entry, looked up) above

[15] = test system: Influenza A virus; experiment: Antiviral activity against Influenza A A/WSN/33 (H1N1) infected in BALB/c mouse assessed as recovery of body weight at 10 to 20 mg/kg/day, iv administered for 5 days starting from 2 hrs post infection and measured daily for 14 days; type: functional, organism-based; settings: dose 10-20 mg/kg/day, time 14.0 day
[16] = Acute toxicity in BALB/c mouse infected with Influenza A A/WSN/33 (H1N1) virus assessed as decrease in body weight at 10 to 20 mg/kg/day, iv administered for 5 days starting from 2 hrs post infection and measured daily for 14 days; type: organism-based; settings: in vivo, 336 h, dose 10-20 mg/kg/day, time 14 day
[17] = test system: Influenza A virus; experiment: Antiviral activity against Influenza A A/WSN/33 (H1N1) infected in BALB/c mouse assessed as reduction in virus induced lung lesion at 10 mg/kg, iv measured on day 4 by histopathological staining based analysis; type: functional, organism-based; settings: time 4.0 day
[18] = MRT in BALB/c mouse infected with Influenza A A/WSN/33 (H1N1) virus at 10 mg/kg, iv measured after 24 hrs by LC-MS analysis; type: ADME, organism-based; settings: in vivo
[19] = target: T1, von Hippel-Lindau disease tumor suppressor/Hemagglutinin; experiment: Protac activity at VHL (unknown origin)/influenza A hemagglutinin transfected in HEK293T cells assessed as degradation of hemagglutinin at 33 uM incubated for 24 hrs by Western blot analysis relative to control; type: cell-based
Target sequence in this assay (P03452 whole entry, looked up): as the sequence (P03452 whole entry, looked up) above
Target sequence in this assay (P40337 whole entry, looked up): as the sequence (P40337 whole entry, looked up) above

[20] = Cmax in BALB/c mouse infected with Influenza A A/WSN/33 (H1N1) virus at 50 mg/kg, po measured after 24 hrs by LC-MS analysis; type: ADME, organism-based; design: time 24 hrs, dose 50 mg/kg, route po; settings: in vivo
[21] = Tmax in BALB/c mouse infected with Influenza A A/WSN/33 (H1N1) virus at 50 mg/kg, po administered as single dose measured after 24 hrs by LC-MS analysis; type: ADME, organism-based; settings: in vivo
[22] = AUCinfinity in BALB/c mouse infected with Influenza A A/WSN/33 (H1N1) virus at 10 mg/kg, iv measured after 24 hrs by LC-MS analysis; type: ADME, organism-based; design: dose 10 mg/kg, time 24 hrs, route iv; settings: in vivo
[23] = Cmax in BALB/c mouse infected with Influenza A A/WSN/33 (H1N1) virus at 10 mg/kg, iv measured after 24 hrs by LC-MS analysis; type: ADME, organism-based; design: time 24 hrs, dose 10 mg/kg, route iv; settings: in vivo
[24] = test system: Influenza A virus; experiment: Antiviral activity against Influenza A A/WSN/33 (H1N1) infected in HEK293T cells incubated for 12 hrs; type: functional, organism-based; settings: HEK-293T
[25] = AUCinfinity in BALB/c mouse infected with Influenza A A/WSN/33 (H1N1) virus at 50 mg/kg, po measured after 24 hrs by LC-MS analysis; type: ADME, organism-based; design: time 24 hrs, dose 50 mg/kg, route po; settings: in vivo
[26] = Oral bioavailability in BALB/c mouse infected with Influenza A A/WSN/33 (H1N1) virus at 50 mg/kg measured after 24 hrs by LC-MS analysis; type: ADME, organism-based; settings: in vivo
[27] = MRT in BALB/c mouse infected with Influenza A A/WSN/33 (H1N1) virus at 50 mg/kg, po measured after 24 hrs by LC-MS analysis; type: ADME, organism-based; settings: in vivo
[28] = Acute toxicity in BALB/c mouse infected with Influenza A A/WSN/33 (H1N1) virus assessed as mortality at 10 to 20 mg/kg/day, iv administered for 5 days starting from 2 hrs post infection and measured daily for 14 days; type: organism-based; settings: in vivo, 336 h, dose 10-20 mg/kg/day, time 14 day
[29] = target: Hemagglutinin (Influenza A virus, UniProt B4URE7); experiment: Binding affinity to recombinant influenza A hemagglutinin assessed as dissociation constant by SPR assay
[30] = Elimination half life in BALB/c mouse infected with Influenza A A/WSN/33 (H1N1) virus at 10 mg/kg, iv measured after 24 hrs by LC-MS analysis; type: ADME, organism-based; settings: in vivo, read-out: LambdaZ (converted)
[31] = Cytotoxicity against HEK293T cells assessed as cell viability at 50 uM incubated for 36 hrs by Celltiter-Glo assay relative to control; type: toxicity, cell-based, HEK-293T; settings: human, read-out: Activity
[32] = target: T1, von Hippel-Lindau disease tumor suppressor/Hemagglutinin; experiment: Protac activity at VHL (unknown origin)/influenza A hemagglutinin transfected in HEK293T cells assessed as accumulation of ubiquitinated hemagglutinin at 20 uM preincubated for 4 hrs followed by proteosome inhibitor, MG-132 addition and measured after 4 hrs by Immunoprecipitation analysis; type: cell-based
Target sequence in this assay (P03452 whole entry, looked up): as the sequence (P03452 whole entry, looked up) above
Target sequence in this assay (P40337 whole entry, looked up): as the sequence (P40337 whole entry, looked up) above

[33] = target: T1, von Hippel-Lindau disease tumor suppressor/Hemagglutinin; experiment: Protac activity at VHL (unknown origin)/influenza A hemagglutinin transfected in HEK293T cells assessed as degradation of hemagglutinin incubated for 7 to 10 hrs by Western blot analysis; type: cell-based; settings: time 7-10 hrs
Target sequence in this assay (P03452 whole entry, looked up): as the sequence (P03452 whole entry, looked up) above
Target sequence in this assay (P40337 whole entry, looked up): as the sequence (P40337 whole entry, looked up) above

[34] = test system: Influenza A virus; experiment: Antiviral activity against Influenza A A/WSN/33 (H1N1) infected in dog MDCK cells assessed as inhibition of viral induced cytopathic effect incubated for 40 hrs by CellTiter-Glo assay; type: functional, organism-based
[35] = target: T1, von Hippel-Lindau disease tumor suppressor/Hemagglutinin; experiment: Protac activity at VHL (unknown origin)/influenza A hemagglutinin transfected in HEK293T cells assessed as degradation of hemagglutinin at 0.39 to 25 uM incubated for 10 hrs by Western blot analysis; type: cell-based; settings: dose 0.39-25 µM
[36] = target: T2, Protein cereblon/Hemagglutinin (Influenza A virus) (UniProt B4URE7+Q96SW2); experiment: Protac activity at CRBN (unknown origin)/Influenza A hemagglutinin transfected in HEK293T cells assessed as induction of hemagglutinin degradation at 0.78 uM incubated for 24 hrs by Western blot analysis relative to control; type: cell-based
[37] = target: T2, Protein cereblon/Hemagglutinin (Influenza A virus); experiment: Protac activity at CRBN (unknown origin)/Influenza A hemagglutinin transfected in HEK293T cells assessed as induction of hemagglutinin degradation at 50 uM incubated for 12 hrs by Western blot analysis relative to control; type: cell-based

Sequence of von Hippel-Lindau disease tumor suppressor (P40337 whole entry): as the sequence (P40337 whole entry, looked up) above

Cc1ncsc1-c1ccc(CNC(=O)[C@@H]2C[C@@H](O)CN2C(=O)[C@@H](NC(=O)CCOCCOCCOCCOCCOCCOCCOCCOCCOCCOCCNC(=O)[C@]23CCC(C)(C)C[C@H]2C2=CC[C@@H]4[C@@]5(C)CC[C@H](O)C(C)(C)[C@@H]5CC[C@@]4(C)[C@]2(C)CC3)C(C)(C)C)cc1
Activity [1]: Toxic

Cc1ncsc1-c1ccc(CNC(=O)[C@@H]2C[C@@H](O)CN2C(=O)[C@@H](NC(=O)CCOCCOCCOCCOCCOCCNC(=O)[C@]23CCC(C)(C)C[C@H]2C2=CC[C@@H]4[C@@]5(C)CC[C@H](O)C(C)(C)[C@@H]5CC[C@@]4(C)[C@]2(C)CC3)C(C)(C)C)cc1
Activity [1]: Toxic

Cc1ncsc1-c1ccc(CNC(=O)[C@@H]2CCCN2C(=O)[C@@H](NC(=O)CCOCCOCCOCCNC(=O)[C@]23CCC(C)(C)C[C@H]2C2=CC[C@@H]4[C@@]5(C)CC[C@H](O)C(C)(C)[C@@H]5CC[C@@]4(C)[C@]2(C)CC3)C(C)(C)C)cc1
Activity [2]: 8.1 10^5PFU/g | fold change (FC) [3]: 3.5 | DC50 [4]: 1440 nM | Activity [5]: Dde | Activity [6]: Active | Kd [7]: 9.25 µM | Activity [1]: 85% | EC50 [8]: 8.98 µM | half-life [9]: 158 min | EC50 [10]: 5.98 µM | Activity [11]: 60% | EC50 [12]: > 25 µM | Activity [13]: Active | Activity [14]: Dde | Activity [15]: Active | Activity [16]: Non-Toxic | Activity [17]: Active | MRT [18]: 58.8 min | Activity [19]: 50% | Cmax [20]: 2070 ng/mL | Tmax [21]: 30 min | AUC(0-inf) [22]: 7450 ng·h/mL | Cmax [23]: 2070 ng/mL | EC50 [24]: 4.53 µM | AUC(0-inf) [25]: 2550 ng·h/mL | bioavailability [26]: 6.8% | MRT [27]: 1.56 h | Activity [28]: Non-Toxic | Kd [29]: 3.18 µM | half-life [30]: 172 min | viability at 36 h, 50 µM [31]: > 85% | Activity [32]: Active | Activity [33]: Active

Cc1ncsc1-c1ccc(CNC(=O)[C@@H]2C[C@@H](O)CN2C(=O)[C@@H](NC(=O)CCOCCNC(=O)[C@]23CCC(C)(C)C[C@H]2C2=CC[C@@H]4[C@@]5(C)CC[C@H](O)C(C)(C)[C@@H]5CC[C@@]4(C)[C@]2(C)CC3)C(C)(C)C)cc1
Activity [5]: Dde | Activity [14]: Dde | Activity [19]: 50%

Cc1ncsc1-c1ccc(CNC(=O)[C@@H]2CCCN2C(=O)[C@@H](N)C(C)(C)C)cc1
Kd [7]: 4.97 µM

CC1(C)CC[C@]2(C(=O)O)CC[C@]3(C)C(=CC[C@@H]4[C@@]5(C)CC[C@H](O)C(C)(C)[C@@H]5CC[C@]43C)[C@@H]2C1 [OLEANOLIC_ACID]
IC50 [34]: > 200 µM | Kd [29]: 10.9 µM

Cc1ncsc1-c1ccc(CNC(=O)[C@@H]2C[C@@H](O)CN2C(=O)[C@@H](NC(=O)CCOCCOCCNC(=O)[C@]23CCC(C)(C)C[C@H]2C2=CC[C@@H]4[C@@]5(C)CC[C@H](O)C(C)(C)[C@@H]5CC[C@@]4(C)[C@]2(C)CC3)C(C)(C)C)cc1
Activity [5]: Dde | Activity [14]: Dde | Activity [19]: 50%

Cc1ncsc1-c1ccc(CNC(=O)[C@@H]2C[C@@H](O)CN2C(=O)[C@@H](NC(=O)CCOCCOCCOCCOCCOCCOCCOCCNC(=O)[C@]23CCC(C)(C)C[C@H]2C2=CC[C@@H]4[C@@]5(C)CC[C@H](O)C(C)(C)[C@@H]5CC[C@@]4(C)[C@]2(C)CC3)C(C)(C)C)cc1
Activity [4]: Active | Activity [1]: Toxic | Activity [35]: Active

CC1(C)CC[C@]2(C(=O)NCCOCCOCCOCCNc3cccc4c3C(=O)N(C3CCC(=O)NC3=O)C4=O)CC[C@]3(C)C(=CC[C@@H]4[C@@]5(C)CC[C@H](O)C(C)(C)[C@@H]5CC[C@]43C)[C@@H]2C1 (some centres undefined)
Activity [36]: > 50% | Activity [37]: 20%
